Reference: patent US9895362B2, “Pharmaceutical composition combining an anticonvulsant and a derivate of nicotinic acid” (Farmacéuticos Rayere, S.A., priority 2014, dated 2018)

How the values were obtained:
[1] = patients treated with gabapentin; cited from earlier work
[2] = tested on: neurological profile (behavior, reflexes, convulsions, motor coordination); test: Neurological profile after subchronic administration (14 days); type: in vivo, mice; conditions: for value of all the parameters of the neurological profile: 14 days of treatment, at these doses; for Behavior: Exploratory Activity / Behavior: Flabbiness / Behavior: Irritability / Behavior: State of Alert / Behavior: Straightening of Tail / Behavior: Vocalization / Convulsions: Clonic / Convulsions: Gait Movements / Convulsions: Jumping Movement / Convulsions: Tonic / Motor Coordination: Abnormal Gait / Motor Coordination: Paralysis / Motor Coordination: Running in Circles / Motor Coordination: Staggering Gait / Reflexes: Corneal: i.p. daily 14 days, gabapentin 31 mg/kg, lysine clonixinate 150 mg/kg, or both
Method: The motor activity and biochemical profile evaluation data were evaluated by an analysis of variance (ANOVA), followed by a Dunnett test. The neurological profile data were evaluated by grading, with 0=null, […] and 3=significant. […] This administration was done consecutively every 24 hours. After 14 days of exposure, toxicological tests were done. A daily evaluation was simultaneously done of the neurological profile, since one critical aspect in all experimental models of nervous system pathologies is evaluation of the final neurological prognosis. In the case of subchronic administration of medication, evaluation of the final functional deficit is a valuable tool. Therefore, after receiving a daily dose for 14 days, the mice underwent an evaluation of the neurological profile of the experimental animals. This evaluation included parameters such as behavior, reflexes, convulsions and motor coordination. Each parameter was graded on a scale of 0=null, 1=slight, 2=moderate and 3=considerable.

[3] = tested on: mechanical allodynia (diabetic neuropathy induced with streptozotocin); test: Model of pain due to diabetic neuropathy induced with streptozotocin; mechanical allodynia by Von Frey filaments assay; isobolographic analysis; type: in vivo, male BALB/c mice; conditions: for DE30 (effective dose that provides an analgesic effect of 30%): drugs administered individually, antiallodynic effect from AUC at 4 hours post-treatment; for dose-antiallodynic effect curve: gabapentin 50, 100, 150 mg/kg, lysine clonixinate 75, 150, 300 mg/kg, individually
Method: In this example, a model of neuropathic pain induced by streptozotocin in male BALB/c mice 6-8 weeks of age is used. The procedure used was based on one described and widely validated (Ahlgren, S. C. and Levine, J. D., 1993), which consists in an intraperitoneal injection of streptozotocin (45 mg/kg) in 0.2 mL of saline solution. […] The blood glucose levels were evaluated in 4 groups of mice with the following characteristics: 1) without treatment (basal), 2) with treatment in fasting, 3) after 1 day of treatment and 4) after 4 days of treatment. As a diabetes parameter, a plasma glucose level≧200 mg/dL was taken.
Allodynia was determined by mechanical stimulation through progressively […] application of different forces with Von Frey filaments of different caliber. The mice were placed in plastic cylinders on a wire mesh table for 15 minutes, ensuring that they were calm, and subsequently the filaments were progressively applied to the side of the leg. The filament of 0.02 g of force was the first to be applied to the left leg, five times during a total period of 30 seconds (approximately 2 seconds per stimulus), the reaction of the mouse being determined after each application. The response observed is the withdrawal or licking of the leg. If three of the five stimuli are observed, the reaction is considered positive and the mechanical threshold of the response is established.
Different groups were used to characterize the dose-response curve of the analgesics, administering the drugs after inducing of diabetes. The doses for gabapentin were 50, 100 and 150 mg/kg, and for lysine clonixinate they were 75, 150 and 300 mg/kg. Groups of animals were used with n≧8. A 0.9% saline solution was administered by intraperitoneal route as a control of each experimental group.
For determination of antiallodynic efficacy, the mean threshold in each group was plotted as a function of time after the administration of the drugs individually or in combination, and the area below the curve (ABC) was obtained using the trapezoid rule. The percentage increase of the threshold was calculated using the following equation: […]
To evaluate the net antiallodynic effect, the area under the curve of the time courses evaluated at 4 hours post-treatment was obtained.
To evaluate the effect of the CLG combination in relation to the effect of each drug individually, isobolographic analysis was used. […] From the respective DE30 of the individual drugs, combinations of gabapentin and CL in fixed proportions were made and evaluated.
Subsequently, a dose-response curve was plotted after coadministration of the two drugs. […] The data represent the mean and the standard error of 8 mice.
Once the DE30 values, both the theoretical and experimental, were obtained, a statistical comparison of the additive theoretical point and the experimental DE30 value was done using a Student's t-test. The type of interaction between the two drugs was established by constructing an isobologram as follows. For each of the individual agents, the dose that produces 30% of antiallodynic effect (DE30) was plotted in rectangular coordinates (x, y). The line that connects these two points is termed “isobolic” or the “additivity line,” and on this line are all the possible combinations of the two drugs that produce only an additivity or summation effect.
To describe the magnitude of the interaction, the interaction index value (γ), which is a quantitative measure of the interaction between two drugs, was calculated: […]

[4] = tested on: mechanical allodynia (injury of the sciatic nerve); test: Experimental model of neuropathic pain due to injury (ligation and cutting) of the sciatic nerve; mechanical allodynia by Von Frey filaments assay; isobolographic analysis; type: in vivo, mice; conditions: for DE30: drugs administered individually, intraperitoneal, linear regression, AUC at 4 hours; for dose dependence of antiallodynic effect: intraperitoneal administration
Source text: To evaluate the analgesic efficacy of the CLG combination in neuropathic pain due to injury to the nerve, an experimental model of neuropathic pain due to ligation and cutting of sciatic nerve in mice was used. The procedure used was based on that described by I. Decosterd and C. J. Woolf (2000), which consists of isolating, tying and injuring the sciatic nerve of the mouse, followed by evaluation of the mechanical allodynia resulting from damage to the nerve.
The surgery consisted of making an incision of approximately 1 cm in the direction proximal longitudinal to the knee and afterwards opening the skin by blunt dissection and separating the muscular layer by dissection lateral to the blood vessel near the femur. Then the right sciatic nerve was exposed under the muscles, separating them with care to display the sciatic nerve in the region where it branches from the sural nerve. Only the sciatic nerve was sutured with No. 6 thread, trying not to damage the sural nerve in any way. A tight surgical knot was made on the sciatic nerve by cutting below the suture with a pair of tweezers, then stitching the muscle layer and the skin by surgical knots. […] Consequently, the antiallodynic effect of the drugs is evaluated from the second or third day after the surgery. For validation of the model, as a surgery control group, a sham surgery was used, in which the sciatic nerve is only exposed surgically, without ligation or cutting, and then the muscle tissue and skin is stitched.
In all groups, the evaluation of mechanical allodynia with the application of Von Frey filaments was done in the same manner as described above for the model of pain due to diabetic neuropathy. The response thresholds in both legs, ipsilateral (right) and contralateral (left), were evaluated.
For systemic administration of the drugs individually and in combinations in the mechanical allodynia model, different groups were used to characterize the dose-response curve by administering the drugs on the third day after the surgery. The doses for gabapentin were 50, 100 and 150 mg/kg, and for lysine clonixinate they were 75, 150 and 300 mg/kg. Afterwards, as described below, other groups were administered different doses of the CLG combination. Both gabapentin and lysine clonixinate and their combinations were dissolved in a 0.9% saline solution. Groups of animals were used with an experimental n of 6 to 8. A 0.9% saline solution was administered by intraperitoneal route to an experimental control group.
To evaluate the net antiallodynic effect, the area under the curve of the time courses evaluated at 4 hours post treatment, both of the ipsilateral and the contralateral leg, was obtained using the trapezoid rule. […] FIG. 10 represents the dose-antiallodynic effect curves, corresponding to gabapentin and lysine clonixinate administered individually. By means of linear regression, the DE30 values of the drugs administered individually were obtained.
In the same way as was done in the previous model, isobolographic analysis was used to evaluate the effect of the CLG combination in relation to the effect of each drug individually. From the respective DE30 of the individual drugs, combinations of gabapentin and CL in fixed proportions were evaluated.

neuropathic pain = test: Overall conclusions from both mouse models of neuropathic pain; type: in vivo, mice; conditions: lysine clonixinate alone, in the studies performed
Source text: In the present study, we used two mouse models to study neuropathic pain: the model of diabetic neuropathy induced by streptozotocin and the model of neuropathic pain induced by a physical injury to the sciatic nerve.

Row | SMILES | value of all the parameters of the neurological profile [2] | Behavior: Exploratory Activity [2] | Behavior: Flabbiness [2] | Behavior: Irritability [2] | Behavior: State of Alert [2] | Behavior: Straightening of Tail [2] | Behavior: Vocalization [2] | Convulsions: Clonic [2] | Convulsions: Gait Movements [2] | Convulsions: Jumping Movement [2] | Convulsions: Tonic [2] | Motor Coordination: Abnormal Gait [2] | Motor Coordination: Paralysis [2] | Motor Coordination: Running in Circles [2] | Motor Coordination: Staggering Gait [2] | Reflexes: Corneal [2] | DE30 (effective dose that provides an analgesic effect of 30%) ([3]; diabetic neuropathy model) [mg/kg] | dose-antiallodynic effect curve [3] | DE30 [4] [mg/kg] | dose dependence of antiallodynic effect [4] | other results
1 | NCC1(CC(=O)O)CCCCC1 [gabapentin, 2-[1-(aminomethyl)cyclohexyl] acetic acid] | 0 | 0 | 0 | 0 | 0 | 0 | 0 | 0 | 0 | 0 | 0 | 0 | 0 | 0 | 0 | 0 | 39.62 ± 1.35 | dose-dependent increase | 83.82 | dose dependent increase | patients showing drowsiness, dizziness, ataxia, headache and fatigue [1]: more than 10%; DE30 (effective dose that provides an analgesic effect of 30%) ([3]; diabetic neuropathy model, listed as Gabapentin): 39.62 mg/kg
2 | Cc1c(Cl)cccc1Nc1ncccc1C(=O)O.NCCCC[C@H](N)C(=O)O [lysine clonixinate, lysine salt of 2-[(3-chloro-2-methylphenyl)amino]-3-pryridinecarboxylic acid] | 0 | 0 | 0 | 0 | 0 | 0 | 0 | 0 | 0 | 0 | 0 | 0 | 0 | 0 | 0 | 0 | 150.41 ± 25.49 | dose-dependent increase | 579.67 | dose dependent increase | antiallodynic effect (in words) ([3]; administered individually, diabetic neuropathy model): moderate antiallodynic effect; DE30 (effective dose that provides an analgesic effect of 30%) ([3]; diabetic neuropathy model, listed as Lysine Clonixinate): 150.41 mg/kg; antiallodynic effect (in words) ([4]; administered individually): moderate antiallodynic effect; effect on neuropathic pain (maximum found) (neuropathic pain): up to 30%
